Usually IC50 stands for the concentration that inhibits the measured activity by half.

Structures are written as SMILES.

The source of these data is patent US6803374B2, “Compounds useful for treating hepatitis C virus” (priority 2001, dated 2004).

For this assay, the target named is T1, HCV NS5B RdRp genotype 1b (Hepatitis C virus genotype 1b, UniProt Q9WMX2).
T1 construct: The protein was expressed with an 18 amino acid C-terminal truncation to enhance the solubility; made in house; host or cells: E. coli BL21(DE3)
T1 sequence (Q9WMX2 2420-2992): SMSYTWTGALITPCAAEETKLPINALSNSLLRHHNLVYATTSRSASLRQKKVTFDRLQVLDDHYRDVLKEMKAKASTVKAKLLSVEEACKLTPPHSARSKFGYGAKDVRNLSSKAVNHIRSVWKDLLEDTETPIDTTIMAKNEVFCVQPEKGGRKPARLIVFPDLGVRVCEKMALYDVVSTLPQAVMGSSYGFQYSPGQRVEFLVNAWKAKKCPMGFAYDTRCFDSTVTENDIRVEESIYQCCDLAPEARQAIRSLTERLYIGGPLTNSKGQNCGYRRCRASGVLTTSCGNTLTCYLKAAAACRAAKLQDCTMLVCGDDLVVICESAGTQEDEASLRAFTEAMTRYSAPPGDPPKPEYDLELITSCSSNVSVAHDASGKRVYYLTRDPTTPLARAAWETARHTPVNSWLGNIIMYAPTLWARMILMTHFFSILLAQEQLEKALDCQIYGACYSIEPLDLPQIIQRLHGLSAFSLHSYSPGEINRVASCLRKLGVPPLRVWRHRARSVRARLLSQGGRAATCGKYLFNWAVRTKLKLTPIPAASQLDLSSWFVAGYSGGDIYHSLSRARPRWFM
Description: HCV NS5B RdRp enzyme assay. It is filed as biochemical. The note with it: IC50, HCV RdRp genotype 1b enzyme, C-terminal 18 aa truncated; average of single point IC50 values. How it is done:
HCV NS5B RdRp cloning, expression and purification. The cDNA encoding the NS5B protein of HCV, genotype 1b, was cloned into the pET21a expression vector. The protein was expressed with an 18 amino acid C-terminal truncation to enhance the solubility. The E. coli competent cell line BL21(DE3) was used for expression of the protein. Cultures were grown at 37° C. for ˜4 hours until the cultures reached an optical density of 2.0 at 600 nm. The cultures were cooled to 20° C. and induced with 1 mM IPTG. Fresh ampicillin was added to a final concentration of 50 ug/ml and the cells were grown overnight at 20° C.
Cell pellets (3L) were lysed for purification to yield 15-24 mgs of purified NS5B. The lysis buffer consisted of 20 mM Tris-HCl, pH 7.4, 500 mM NaCl, 0.5% triton X-100, 1 mM DTT, 1 mM EDTA, 20% glycerol, 0.5 mg/ml lysozyme, 10 mM MgCl2, 15 ug/ml deoxyribonuclease I, and Complete TM protease inhibitor tablets (Roche). After addition of the lysis buffer, frozen cell pellets were resuspended using a tissue homogenizer. To reduce the viscosity of the sample, aliquots of the lysate were sonicated on ice using a microtip attached to a Branson sonicator. The sonicated lysate was centrifuged at 100,000×g for 1 hr at 4° C. and filtered through a 0.2 μm filter unit (Corning).
The protein was purified using three sequential chromatography steps: Heparin sepharose CL-6B, polyU sepharose 4B, and Hitrap SP sepharose (Pharmacia). The chromatography buffers were identical to the lysis buffer but contained no lysozyme, deoxyribonuclease I, MgCl2 or protease inhibitor and the NaCl concentration of the buffer was adjusted according to the requirements for charging the protein onto the column. Each column was eluted with a NaCl gradient which varied in length from 5-50 column volumes depending on the column type. After the final chromatography step, the resulting purity of the enzyme is >90% based on SDS-PAGE analysis. The enzyme was aliquoted and stored at −80° C.
HCV NS5B RdRp enzyme assay. HCV RdRp genotype 1b assays were run in assay buffer composed of 20 mM Tris-HCl, pH 7.5, 2.5 mM KCl, 5 mM MgCl2, 1 mM DTT, 1.6 U RNAse inhibitor (Promega N2515), in 96 well plates (Falcon 3918). All compounds were serially diluted in DMSO and diluted further in assay buffer such that the final concentration of DMSO in the assay was 2%. Compounds were serially diluted (3-fold each time) for a 7 point inhibition analysis. HCV RdRp genotype 1b enzyme was used at a final concentration of 28 nM. A polyA template was used at 28 nM, and the oligo-dT12-18 primer was used at 840 nM final concentration. Preannealed primer and template were obtained commercially (Amersham 27-787802). ^3H-UTP was used at 0.125 μCi (1 μM total UTP). Reaction was initiated by the addition of enzyme. Reactions were incubated at 30° C. for 45 min, and stopped by adding 30 ul of 20% ice cold TCA. Plates were chilled for 30 minutes and harvested onto Unifilter-96, GF/B plates (Packard, 6005177) using a Packard FilterMate Cell Harvester. The harvest plates were prewashed 3 times, 200 ul/well, with 100 mM NaPPi. Harvested filters were washed 30 times, 200 ul/well, with distilled water followed by ethanol. Filter plates were dried, and 30 ul/well microscint-20 was added. Plates were read on a Packard Top Count NXT.
The IC50 values for compounds were determined using […] different [I], combined with 7 nM enzyme, 800 ng of the template-primer polyC/oligoG12 (1:5 molar ratio), and 0.7 uM of ^3H GTP containing 1 uCi. The observed fractional activity (fa=vi/vo) was used in the equation IC50=[I]/(1/fa-1) to determine a single point IC50 value. Typically, the single point IC50 values derived from [I] that produced fractional activities in the range of 0.1 to 0.8 relative to the uninhibited control were averaged to calculate the IC50 value for each compound.
Consider `O=Cc1ccoc1-c1ccc(C(=O)O)cc1COc1ccc(-c2nc3cc(-c4nnn[nH]4)ccc3n2C2CCCCC2)cc1` [Example 122], for which half-maximal inhibition (IC50) was put at 670 nM.

In turn, `CC(C)(C)OC(=O)C(Cc1cc2ccccc2[nH]1)NC(=O)c1ccc(-c2ccc(F)c(Cl)c2)c(COc2ccc(-c3nc4cc(-c5nnn[nH]5)ccc4n3C3CCCCC3)cc2)c1` (stereo not shown) [Example 85] returned an IC50 of 2300 nM.

`CNC(=O)c1ccc(-c2ccc(C#N)cc2)c(COc2ccc(-c3nc4cc(-c5nnn[nH]5)ccc4n3C3CCCCC3)cc2)c1` [Example 49] had a half-inhibitory concentration (IC50) of 80 nM.

Molecule `CC(C)(C)OC(=O)CNC(=O)c1ccc(-c2cccc(O)c2)c(COc2ccc(-c3nc4cc(-c5nnn[nH]5)ccc4n3C3CCCCC3)cc2)c1` [Example 72] displayed an IC50 of 930 nM.

On to `c1ccc(C(Oc2ccc(-c3nc4cc(-c5nnn[nH]5)ccc4n3C3CCCCC3)cc2)c2ccccc2)cc1` [Example 1, 2-[4-(Diphenylmethoxy)phenyl]-1-cyclohexyl-5-(1H-tetrazol-5-yl)-1H-benzimidazole], for which the half-maximal inhibitory concentration (IC50) amounted to 630 nM.

Turning to `O=C(O)c1ccc(-c2ccc3[nH]ccc3c2)c(COc2ccc(-c3nc4cc(-c5nnn[nH]5)ccc4n3C3CCCCC3)cc2)c1` [Example 121], the IC50 stood at 30 nM.

Turning to `O=C(O)c1ccc(-c2ccc(F)cc2)c(COc2ccc(-c3nc4cc(-c5nnn[nH]5)ccc4n3C3CCCCC3)cc2)c1` [Example 24], it took 50 nM to reach half-maximal inhibition (IC50).

`O=C(O)c1ccc(-c2cccs2)c(COc2ccc(-c3nc4cc(-c5nnn[nH]5)ccc4n3C3CCCCC3)cc2)c1` [Example 114]: inhibition was half-maximal at 70 nM (IC50).

`O=C(NC(Cc1ccc(O)cc1)C(=O)O)c1ccc(-c2ccc(F)c(Cl)c2)c(COc2ccc(-c3nc4cc(-c5nnn[nH]5)ccc4n3C3CCCCC3)cc2)c1` (stereo not shown) [Example 57] gave an IC50 of 180 nM.

Molecule `O=Cc1ccc(-c2ccc(C(=O)O)cc2COc2ccc(-c3nc4cc(-c5nnn[nH]5)ccc4n3C3CCCCC3)cc2)cc1` [Example 37] showed an IC50 of 70 nM.

With `O=C(c1ccc(-c2cccc(O)c2)c(COc2ccc(-c3nc4cc(-c5nnn[nH]5)ccc4n3C3CCCCC3)cc2)c1)N1CCOCC1` [Example 65], inhibition was half-maximal at 1700 nM (IC50).

`CNC(=O)c1ccc(-c2ccc(OC)c(OC)c2)c(COc2ccc(-c3nc4cc(-c5nnn[nH]5)ccc4n3C3CCCCC3)cc2)c1` [Example 91] returned an IC50 of 260 nM.

Consider `Cc1ccc(-c2ccc(C(=O)O)cc2COc2ccc(-c3nc4cc(-c5nnn[nH]5)ccc4n3C3CCCCC3)cc2)cc1N` [Example 43], for which the half-inhibitory concentration (IC50) is 240 nM.

Molecule `O=C(c1ccc(-c2ccc(F)c(Cl)c2)c(COc2ccc(-c3nc4cc(-c5nnn[nH]5)ccc4n3C3CCCCC3)cc2)c1)N1CCOCC1` [Example 76] registered an IC50 of 1400 nM.

`O=C(c1ccc(-c2ccc(F)c(Cl)c2)c(COc2ccc(-c3nc4cc(-c5nnn[nH]5)ccc4n3C3CCCCC3)cc2)c1)N1CCCC1` [Example 77] registered an IC50 of 1200 nM.

Molecule `O=C(O)c1ccc(-c2ccccc2)c(COc2ccc(-c3nc4cc(-c5nnn[nH]5)ccc4n3C3CCCCC3)cc2)c1` [Example 35] registered a half-inhibitory concentration (IC50) of 70 nM.

Regarding `COC(=O)c1ccc(C(=O)NS(=O)(=O)c2ccc3c(c2)nc(-c2ccc(OCc4ccccc4)cc2)n3C2CCCCC2)cc1` [Example 17, 4-[2-(4-Benzyloxyphenyl)-1-cyclohexyl-1H-benzoimidazole-5-sulfonylaminocarbonyl]-benzoic acid methyl ester], inhibition was half-maximal at 5210 nM (IC50).

As to `COc1ccc(-c2ccc(Cl)cc2)c(COc2ccc(-c3nc4cc(-c5nnn[nH]5)ccc4n3C3CCCCC3)cc2)c1` [Example 3, 2-{4-[(4′-Chloro-4-methoxy-1,1′-biphenyl-2-yl)methoxy]phenyl}-1-cyclohexyl-5-(1H-tetrazol-5-yl)-1H-benzimidazole], the IC50 was 140 nM.

Molecule `O=C(O)c1ccc(-c2cc(Cl)cc(Cl)c2)c(COc2ccc(-c3nc4cc(-c5nnn[nH]5)ccc4n3C3CCCCC3)cc2)c1` [Example 27] yielded an IC50 of 1010 nM.

For `O=C(O)CNC(=O)c1ccc(-c2ccc(F)c(Cl)c2)c(COc2ccc(-c3nc4cc(-c5nnn[nH]5)ccc4n3C3CCCCC3)cc2)c1` [Example 86], the 50% inhibitory concentration (IC50) was 320 nM.

In the case of `COc1ccc(-c2ccc(C(=O)NC(C)C(=O)OC(C)(C)C)cc2COc2ccc(-c3nc4cc(-c5nnn[nH]5)ccc4n3C3CCCCC3)cc2)cc1OC` (stereo not shown) [Example 94], the midpoint of inhibition, the IC50, lay at 2100 nM.

Regarding `O=C(c1ccc(-c2ccsc2)c(COc2ccc(-c3nc4cc(-c5nnn[nH]5)ccc4n3C3CCCCC3)cc2)c1)N1CCOCC1` [Example 133], the IC50 came to 1100 nM.

`O=C(NCCCO)c1ccc(-c2cccc(O)c2)c(COc2ccc(-c3nc4cc(-c5nnn[nH]5)ccc4n3C3CCCCC3)cc2)c1` [Example 67] had a half-maximal inhibitory concentration (IC50) of 790 nM.

`CC(C)(C)OC(=O)C(Cc1ccc(OC(C)(C)C)cc1)NC(=O)c1cccc(COc2ccc(-c3nc4cc(-c5nnn[nH]5)ccc4n3C3CCCCC3)cc2)c1` (stereo not shown) [Example 51] returned a 50% inhibitory concentration (IC50) of 930 nM.

The molecule `O=C(O)CNC(=O)c1ccc(-c2ccc3[nH]cc(C(=O)C(F)(F)F)c3c2)c(COc2ccc(-c3nc4cc(-c5nnn[nH]5)ccc4n3C3CCCCC3)cc2)c1` [Example 153] displayed an IC50 of 260 nM.
